Experimental data as given in patent US20230265151A1, “GIP/GLP1 CO-AGONIST COMPOUNDS” (priority 2020, published 2023).
Like-named read-outs stand apart in the source and are kept apart here.

Legend:
hGIPR = target: T1, hGIPR (Homo sapiens, UniProt P48546); test: Functional cAMP formation (HTRF) in HEK-293 clonal cells expressing hGIPR, 0.1% bovine casein, without or with 1.0% human serum albumin; type: cell-based; conditions: for Emax: percent of maximal response to GIP(1-42)NH2; for EC50: cAMP
T1 construct: expressed in transfected cells
T1 sequence (P48546 22-466): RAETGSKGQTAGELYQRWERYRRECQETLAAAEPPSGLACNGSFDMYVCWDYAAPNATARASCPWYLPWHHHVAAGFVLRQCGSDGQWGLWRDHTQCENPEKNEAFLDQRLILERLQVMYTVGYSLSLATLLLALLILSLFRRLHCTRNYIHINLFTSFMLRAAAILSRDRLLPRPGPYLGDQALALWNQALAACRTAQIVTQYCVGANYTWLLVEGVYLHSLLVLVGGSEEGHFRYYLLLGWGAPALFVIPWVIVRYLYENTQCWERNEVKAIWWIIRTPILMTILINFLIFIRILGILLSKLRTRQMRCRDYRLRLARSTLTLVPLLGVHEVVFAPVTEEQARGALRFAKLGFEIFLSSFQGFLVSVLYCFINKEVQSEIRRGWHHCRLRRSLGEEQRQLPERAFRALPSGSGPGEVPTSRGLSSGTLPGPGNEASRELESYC
How it was run: (§1)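 Readings of the HTRF 665/620 nm ratio, which falls as cAMP rises, were converted to nM cAMP using a standard curve after 30 min peptide exposure at 37° C.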

hGLP-1R = hGLP-1R (Homo sapiens, UniProt P43220); test: Functional cAMP formation (HTRF) in HEK-293 clonal cells expressing hGLP-1R, 0.1% bovine casein, without or with 1.0% human serum albumin; type: cell-based; design: expressed in transfected cells; conditions: 37° C.; for Emax: HEK293, cAMP, percent of maximal response to GLP-1(7-36)NH2, read-out: hGLP-1R Emax, % ± SEM; for EC50: cAMP
How it was run: as §1

[1] = target: T2, human GIP receptor (hGIPR) (Homo sapiens, UniProt P48546); test: [125I]-GIP binding, SPA with membranes of CHO cells expressing hGIPR
T2 construct: expressed in transfected cells; crude membranes
T2 sequence (P48546 22-466): T1 sequence (P48546 22-466)
Protocol: Two methods are used for the preparation of crude cell membranes.
Method 1: Frozen cell pellets are lysed on ice in hypotonic buffer containing 50 mM Tris HCl, pH 7.5, and Roche Complete™ Protease Inhibitors with EDTA. […] The homogenate is centrifuged at 4° C. at 1100 × g for 10 minutes. The supernatant is collected and stored on ice while the pellets are resuspended in homogenization buffer and rehomogenized as described above. The homogenate is centrifuged at 1100 × g for 10 minutes. The second supernatant is combined with the first supernatant and centrifuged at 35000 × g for 1 hour at 4° C. The resulting membrane pellet is resuspended in homogenization buffer containing protease inhibitors at approximately 1 to 3 mg/mL, quick frozen in liquid nitrogen and stored as aliquots in a -80° C. freezer until use.
The homogenate is centrifuged at 4° C. at 1800 × g for 15 minutes. The supernatant is collected and stored on ice while the pellets are resuspended in homogenization buffer (without DNAse I) and rehomogenized as described above. The homogenate is centrifuged at 1800 × g for 15 minutes. The second supernatant is combined with the first supernatant and centrifuged an additional time at 1800 × g for 15 minutes. The overall supernatant is then centrifuged at 25000 × g for 30 minutes at 4° C. The resulting membrane pellet is resuspended in homogenization buffer (without DNAse I) containing protease inhibitors at approximately 1 to 3 mg/mL and stored as aliquots in a -80° C. freezer until use.
The binding buffer contains 25 mM HEPES, pH 7.4, 2.5 mM CaCl2, 1 mM MgCl2, 0.1% (w/v) bacitracin, 0.003% (w/v) TWEEN®-20, and Roche Complete™ Protease Inhibitors without EDTA. Peptides and GIP are thawed and 3 fold serially diluted in 100% DMSO (10 point concentration response curves). […] Plates are sealed and mixed on a plate shaker (setting 6) for 1 minute and read with a PerkinElmer Trilux MicroBeta® scintillation counter after 2.5 to 12 hours of incubation/settling time at room temperature.
Raw CPM data for concentration curves of peptides, Gcg, GLP-1, or GIP are converted to percent inhibition by subtracting nonspecific binding (binding in the presence of excess unlabeled Gcg, GLP-1, or GIP, respectively) from the individual CPM values and dividing by the total binding signal, also corrected by subtracting nonspecific binding. Data are analyzed using four-parameter (curve maximum, curve minimum, IC50, Hill slope) nonlinear regression routines (Genedata Screener, version 12.0.4, Genedata AG, Basal, Switzerland). […] Values for Ki are reported as the geometric mean, with error expressed as the standard error of the mean (SEM) and n is equal to the number of independent replicates (determined in assays performed on different days). Geometric Means are calculated as follows: […]
The Ki Ratio (Ki for native control peptide/Ki for test compound) at each receptor and each species is calculated. The Ki Ratio is a rapid indication of the apparent affinity of a peptide compared to the native control peptide.
n=⅟x means that only one value out of the total number of replicates (x) is used to express the mean. SEM is only calculated when n=2 or greater non-qualified results exist. Means are expressed as GeoMetric means with the standard error of the mean (SEM) and the number of replicates (n) indicated in parenthesis.

hGCGR = target: T3, hGCGR (Homo sapiens, UniProt P47871); test: Functional cAMP formation (HTRF) in HEK-293 clonal cells expressing hGCGR, 0.1% bovine casein, without or with 1.0% human serum albumin; type: cell-based; conditions: cAMP, 37° C.
T3 construct: expressed in transfected cells
How it was run: as §1

[2] = HEK293, cAMP, 37° C., 0.1% bovine casein and 1.0% human serum albumin, read-out: hGIPR Emax, % ± SEM
[3] = 37° C., 0.1% bovine casein (no human serum albumin), geometric mean, read-out: hGIPR EC50, nM (SEM, n)
[4] = 0.1% bovine casein and 1.0% human serum albumin
[5] = 0.1% bovine casein (no human serum albumin), geometric mean, read-out: hGLP-1R EC50, nM (SEM, n)
[6] = human GIPR, geometric mean (SEM, n), read-out: Binding Affinity Ki, nM (SEM, n) hGIPR
[7] = 0.1% bovine casein (no human serum albumin), geometric mean, read-out: hGCGR EC50, nM (SEM, n)
[8] = 0.1% bovine casein and 1.0% human serum albumin, geometric mean (SEM, n), read-out: hGCGR EC50, nM (SEM, n)

T3 sequence (P47871 26-477): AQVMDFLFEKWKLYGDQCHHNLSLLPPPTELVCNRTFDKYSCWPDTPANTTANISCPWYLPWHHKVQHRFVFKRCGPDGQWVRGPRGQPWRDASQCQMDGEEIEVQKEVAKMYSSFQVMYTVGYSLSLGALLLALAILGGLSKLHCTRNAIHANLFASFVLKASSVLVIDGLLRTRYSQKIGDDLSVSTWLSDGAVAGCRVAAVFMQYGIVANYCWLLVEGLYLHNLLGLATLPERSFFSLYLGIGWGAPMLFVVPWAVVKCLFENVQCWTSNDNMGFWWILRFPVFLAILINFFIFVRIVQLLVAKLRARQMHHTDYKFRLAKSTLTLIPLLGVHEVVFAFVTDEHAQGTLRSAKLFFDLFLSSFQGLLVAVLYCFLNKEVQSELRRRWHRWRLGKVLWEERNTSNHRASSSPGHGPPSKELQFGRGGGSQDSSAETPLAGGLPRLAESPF
Sequence of hGLP-1R (P43220 24-463): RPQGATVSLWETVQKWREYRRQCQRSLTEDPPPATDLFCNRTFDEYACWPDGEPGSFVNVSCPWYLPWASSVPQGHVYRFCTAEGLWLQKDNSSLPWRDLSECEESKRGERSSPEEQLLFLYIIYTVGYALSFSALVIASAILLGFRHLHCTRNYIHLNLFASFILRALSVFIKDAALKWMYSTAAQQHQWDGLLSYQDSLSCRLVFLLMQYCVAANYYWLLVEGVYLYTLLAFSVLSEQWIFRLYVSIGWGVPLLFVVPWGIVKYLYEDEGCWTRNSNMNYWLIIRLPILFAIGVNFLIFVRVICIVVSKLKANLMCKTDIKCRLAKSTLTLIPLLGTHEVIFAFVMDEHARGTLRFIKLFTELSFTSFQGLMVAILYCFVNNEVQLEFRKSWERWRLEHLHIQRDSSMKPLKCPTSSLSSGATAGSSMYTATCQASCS

| SMILES | Emax (hGIPR; [2]) [%] | EC50 (hGIPR; [3]) [nM] | Emax (hGLP-1R; [4]) [%] | EC50 (hGLP-1R; [5]) [nM] | Ki [1, 6] [nM] | EC50 (hGCGR; [7]) [nM] | EC50 (hGCGR; [8]) [nM] | Emax (hGIPR; HEK293, read-out: hGIPR Emax, % ± SEM, cAMP, 37° C., 0.1% bovine casein and 1.0% human serum albumin) [%] | Emax (hGIPR; HEK293, read-out: hGIPR Emax, % ± SEM, cAMP, 37° C., 0.1% bovine casein, arithmetic mean) [%] | EC50 (hGIPR; hGIPR EC50, nM (SEM, n), 37° C., 0.1% bovine casein (no human serum albumin), geometric mean) [nM] | EC50 (hGLP-1R; hGLP-1R EC50, nM (SEM, n), 0.1% bovine casein (no human serum albumin), geometric mean) [nM] | Ki [1] [nM] | EC50 (hGCGR; hGCGR EC50, nM (SEM, n), 0.1% bovine casein (no human serum albumin), geometric mean) [nM] | EC50 (hGCGR; hGCGR EC50, nM (SEM, n), 0.1% bovine casein and 1.0% human serum albumin, geometric mean (SEM, n)) [nM] | Emax (hGIPR; HEK293, cAMP, 37° C., 0.1% bovine casein, arithmetic mean, read-out: hGIPR Emax, % ± SEM) [%] | EC50 (hGIPR; 37° C., 0.1% bovine casein and 1.0% human serum albumin, geometric mean (SEM, n), read-out: hGIPR EC50, nM (SEM, n)) [nM] | EC50 (hGLP-1R; 0.1% bovine casein and 1.0% human serum albumin, geometric mean (SEM, n), read-out: hGLP-1R EC50, nM (SEM, n)) [nM] |
| --- | --- | --- | --- | --- | --- | --- | --- | --- | --- | --- | --- | --- | --- | --- | --- | --- | --- |
| CCCCCCCCCCCC(=O)N[C@@H](CCC(=O)NCCOCCOCC(=O)NCCOCCOCC(=O)NCCCC[C@H](NC(=O)[C@H](CCCN)NC(=O)[C@H](CC(=O)O)NC(=O)[C@H](CC(C)C)NC(=O)[C@](C)(CC(C)C)NC(=O)[C@@H](NC(=O)C(C)(C)NC(=O)[C@H](Cc1ccncc1)NC(=O)[C@H](CC(=O)O)NC(=O)[C@H](CO)NC(=O)[C@@H](NC(=O)[C@](C)(Cc1ccccc1F)NC(=O)[C@@H](NC(=O)CNC(=O)[C@H](CCC(=O)O)NC(=O)C(C)(C)NC(=O)[C@@H](N)Cc1ccc(O)cc1)[C@@H](C)O)[C@@H](C)O)[C@@H](C)CC)C(=O)N[C@@H](C)C(=O)N[C@@H](CCC(N)=O)C(=O)NC(C)(C)C(=O)N[C@@H](CCC(=O)O)C(=O)N[C@@H](Cc1ccccc1)C(=O)N[C@H](C(=O)N[C@H](CCC(=O)O)C(=O)N[C@@](C)(Cc1ccc(O)cc1)C(=O)N[C@@H](CC(C)C)C(=O)N[C@H](C(=O)N[C@@H](CCCCNC(=O)COCCOCCNC(=O)COCCOCCNC(=O)CC[C@H](NC(=O)CCCCCCCCCCC)C(=O)O)C(=O)NCC(=O)NCC(=O)N1CCC[C@H]1C(=O)N[C@@H](CO)C(=O)N[C@@H](CO)C(=O)NCC(=O)N[C@@H](C)C(=O)N1CCC[C@H]1C(=O)N1CCC[C@H]1C(=O)N1CCC[C@H]1C(=O)N[C@@H](CO)C(N)=O)[C@@H](C)CC)[C@@H](C)CC)C(=O)O [Example 334] | 89 | 0.00987 | 105 | 0.131 | 0.0195 | > 9950 | > 9950 |  |  |  |  |  |  |  |  |  |  |
| CC[C@H](C)[C@H](NC(=O)[C@H](CC(C)C)NC(=O)[C@](C)(Cc1ccc(O)cc1)NC(=O)[C@H](CCCCNC(=O)COCCOCCNC(=O)COCCOCCNC(=O)CC[C@H](NC(=O)CCCCCCCCCOc1ccc(C(=O)O)cc1)C(=O)O)NC(=O)[C@@H](NC(=O)[C@H](Cc1ccccc1)NC(=O)[C@H](CCC(=O)O)NC(=O)C(C)(C)NC(=O)[C@H](CCC(N)=O)NC(=O)[C@H](C)NC(=O)[C@H](CCC(N)=O)NC(=O)[C@H](CCCN)NC(=O)[C@H](CC(=O)O)NC(=O)[C@H](CC(C)C)NC(=O)[C@](C)(CC(C)C)NC(=O)[C@@H](NC(=O)C(C)(C)NC(=O)[C@H](Cc1ccncc1)NC(=O)[C@H](CC(=O)O)NC(=O)[C@H](CO)NC(=O)[C@@H](NC(=O)[C@](C)(Cc1ccccc1F)NC(=O)[C@@H](NC(=O)CNC(=O)[C@H](CCC(=O)O)NC(=O)C(C)(C)NC(=O)[C@@H](N)Cc1ccc(O)cc1)[C@@H](C)O)[C@@H](C)O)[C@@H](C)CC)[C@@H](C)CC)C(=O)N[C@@H](CCCCNC(=O)COCCOCCNC(=O)COCCOCCNC(=O)CC[C@H](NC(=O)CCCCCCCCCOc1ccc(C(=O)O)cc1)C(=O)O)C(=O)NCC(=O)NCC(=O)N1CCC[C@H]1C(=O)N[C@@H](CO)C(=O)N[C@@H](CO)C(=O)NCC(=O)N[C@@H](C)C(=O)N1CCC[C@H]1C(=O)N1CCC[C@H]1C(=O)N1CCC[C@H]1C(=O)N[C@@H](CO)C(N)=O [Example 403] |  |  |  |  |  |  |  | 91.7 | 98.1 | 0.00939 | 0.175 | 0.0375 | > 9950 | > 9950 |  |  |  |
| CCCCCCCCCCCC(=O)N[C@@H](CCC(=O)NCCOCCOCC(=O)NCCOCCOCC(=O)NCCCC[C@H](NC(=O)[C@H](CO)NC(=O)[C@@H]1CCCN1C(=O)[C@@H]1CCCN1C(=O)[C@@H]1CCCN1C(=O)[C@H](C)NC(=O)CNC(=O)[C@H](CO)NC(=O)[C@H](CO)NC(=O)[C@@H]1CCCN1C(=O)CNC(=O)CNC(=O)[C@H](CCC(=O)O)NC(=O)[C@@H](NC(=O)[C@H](CC(C)C)NC(=O)[C@](C)(Cc1ccc(O)cc1)NC(=O)[C@@H](CCC(=O)O)NC(=O)[C@@H](NC(=O)[C@H](Cc1ccccc1)NC(=O)[C@H](CCCN)NC(=O)C(C)(C)NC(=O)[C@H](CCC(N)=O)NC(=O)[C@H](C)NC(=O)[C@H](CCCCNC(=O)COCCOCCNC(=O)COCCOCCNC(=O)CC[C@H](NC(=O)CCCCCCCCCCC)C(=O)O)NC(=O)[C@H](CCCN)NC(=O)[C@H](CC(=O)O)NC(=O)[C@H](CC(C)C)NC(=O)[C@](C)(CC(C)C)NC(=O)[C@@H](NC(=O)C(C)(C)NC(=O)[C@H](Cc1ccncc1)NC(=O)[C@H](CC(=O)O)NC(=O)[C@H](CO)NC(=O)[C@@H](NC(=O)[C@](C)(Cc1ccccc1F)NC(=O)[C@@H](NC(=O)CNC(=O)[C@H](CCC(=O)O)NC(=O)C(C)(C)NC(=O)[C@@H](N)Cc1ccc(O)cc1)[C@@H](C)O)[C@@H](C)O)[C@@H](C)CC)[C@@H](C)CC)[C@@H](C)CC)C(N)=O)C(=O)O [Example 418] | 87.2 | 0.00599 | 98.8 | 0.0603 | 0.0174 | > 9950 | > 9950 |  |  |  |  |  |  |  | 91 | 0.126 | 1.72 |
